# Laboratory results as given in PubChem BioAssay AID328 (DTP/NCI, 2004).
# Where “and” joins values, the source holds several entries; their conditions need not be identical. Identical values can stand only once. Inconclusive results and toxic doses are left out.
# Tested on: BDF1 mice, P388 leukemia ip, median survival T/C
# Experiment: NCI In Vivo Anticancer Drug Screen. Data for tumor model P388 Leukemia (intraperitoneal) in B6D2F1 (BDF1) mice
# Conditions: endpoint: median survival time, higher = longer survival
# Method in brief: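 T/C = treated-group survival ÷ vehicle-control survival; tumour transplanted into mice before dosing.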
# [1] = dose: 100.0 mg/kg/injection, schedule: Q04DX003 (ip), vehicle: Klucel (hydroxypropylcellulose) (HPC)
# [2] = dose: 200.0 mg/kg/injection, schedule: Q01DX009 (ip), vehicle: Klucel (hydroxypropylcellulose) (HPC)
# [3] = dose: 200.0 mg/kg/injection, schedule: Q04DX003 (ip), vehicle: Klucel (hydroxypropylcellulose) (HPC)
# [4] = dose: 400.0 mg/kg/injection, schedule: Q01DX009 (ip), vehicle: Klucel (hydroxypropylcellulose) (HPC)
# [5] = dose: 400.0 mg/kg/injection, schedule: Q04DX003 (ip), vehicle: Klucel (hydroxypropylcellulose) (HPC)
# [6] = dose: 400.0 mg/kg/injection, schedule: Q01DX009 (ip), vehicle: saline with Tween-80
# [7] = dose: 100.0 mg/kg/injection, schedule: Q04DX003 (ip), vehicle: other
# [8] = dose: 200.0 mg/kg/injection, schedule: Q04DX003 (ip), vehicle: other
# [9] = dose: 400.0 mg/kg/injection, schedule: Q04DX003 (ip), vehicle: other
# [10] = dose: 12.5 mg/kg/injection, schedule: Q04DX003 (ip), vehicle: Klucel (hydroxypropylcellulose) (HPC)
# [11] = dose: 25.0 mg/kg/injection, schedule: Q04DX003 (ip), vehicle: Klucel (hydroxypropylcellulose) (HPC)
# [12] = dose: 50.0 mg/kg/injection, schedule: Q01DX009 (ip), vehicle: Klucel (hydroxypropylcellulose) (HPC)
# [13] = dose: 50.0 mg/kg/injection, schedule: Q04DX003 (ip), vehicle: Klucel (hydroxypropylcellulose) (HPC)
# [14] = dose: 100.0 mg/kg/injection, schedule: Q01DX009 (ip), vehicle: Klucel (hydroxypropylcellulose) (HPC)
# [15] = dose: 100.0 mg/kg/injection, schedule: Q04DX003 (ip), vehicle: saline sonified
# [16] = dose: 200.0 mg/kg/injection, schedule: Q04DX003 (ip), vehicle: saline sonified
# [17] = dose: 50.0 mg/kg/injection, schedule: Q01DX009 (ip), vehicle: water
# [18] = dose: 100.0 mg/kg/injection, schedule: Q01DX009 (ip), vehicle: water
# [19] = dose: 200.0 mg/kg/injection, schedule: Q01DX009 (ip), vehicle: water
# [20] = dose: 400.0 mg/kg/injection, schedule: Q01DX009 (ip), vehicle: water
# [21] = dose: 50.0 mg/kg/injection, schedule: Q01DX009 (ip), vehicle: saline with Tween-80
# [22] = dose: 100.0 mg/kg/injection, schedule: Q01DX009 (ip), vehicle: saline with Tween-80
# [23] = dose: 200.0 mg/kg/injection, schedule: Q01DX009 (ip), vehicle: saline with Tween-80
# [24] = dose: 100.0 mg/kg/injection, schedule: Q01DX009 (ip), vehicle: saline
# [25] = dose: 200.0 mg/kg/injection, schedule: Q01DX009 (ip), vehicle: saline
compound,measurement,setting,value
Cc1cc(N(c2c(Cl)c(Cl)c(NS(=O)(=O)c3ccccc3)c(Cl)c2Cl)S(=O)(=O)c2ccccc2)cc(C)c1N,T/C,[1],96 % of control
same,T/C,[2],92 % of control
same,T/C,[3],96 % of control
same,T/C,[4],96 % of control
same,T/C,[5],88 % of control
CCOC(=O)C(C(=O)OCC)=C(C)C,T/C,[1],100 % of control
same,T/C,[3],88 % of control
same,T/C,[6],150 % of control
same,T/C,[5],103 % of control
O=S1(=O)C2CCCCC2(N2CCOCC2)C1c1ccccc1 (stereo unspecified),T/C,[7],100 % of control
same,T/C,"dose: 178.0 mg/kg/injection, schedule: Q04DX003 (ip), vehicle: other",109 % of control
same,T/C,[8],104 % of control
same,T/C,"dose: 266.0 mg/kg/injection, schedule: Q04DX003 (ip), vehicle: other",104 % of control
same,T/C,[9],100 % of control
CC1(C)N=C(N)N=C(N)N1c1ccc(OCc2ccc(C(=O)Nc3cccc(S(=O)(=O)F)c3)cc2)c(Cl)c1,T/C,"dose: 6.25 mg/kg/injection, schedule: Q01DX009 (ip), vehicle: Klucel (hydroxypropylcellulose) (HPC)",206 % of control
same,T/C,"dose: 6.25 mg/kg/injection, schedule: Q04DX003 (ip), vehicle: Klucel (hydroxypropylcellulose) (HPC)",163 % of control
same,T/C,"dose: 12.5 mg/kg/injection, schedule: Q01DX009 (ip), vehicle: Klucel (hydroxypropylcellulose) (HPC)",247 % of control
same,T/C,[10],162 % of control and 184 % of control
same,T/C,"dose: 25.0 mg/kg/injection, schedule: Q01DX009 (ip), vehicle: Klucel (hydroxypropylcellulose) (HPC)",308 % of control
same,T/C,[11],186 % of control and 223 % of control
same,T/C,[12],110 % of control
same,T/C,[13],263 % of control and 189 % of control
same,T/C,[14],95 % of control
same,T/C,[1],95 % of control and 119 % of control
O=C(Nc1ccccc1C(=O)c1ccccn1)c1ccccc1,T/C,[15],90 % of control
same,T/C,[16],90 % of control
same,T/C,"dose: 400.0 mg/kg/injection, schedule: Q04DX003 (ip), vehicle: saline sonified",90 % of control
COC1=CC(=O)C=C(OC)C1=O,T/C,"dose: 2.0 mg/kg/injection, schedule: Q01DX010 (ip), vehicle: saline",105 % of control
same,T/C,"dose: 4.0 mg/kg/injection, schedule: Q01DX010 (ip), vehicle: saline",100 % of control
same,T/C,"dose: 8.0 mg/kg/injection, schedule: Q01DX010 (ip), vehicle: saline",105 % of control
COc1ccc(C(=O)/C=C/c2ccc(OCc3ccccc3)c(OC)c2)cc1OC,T/C,[17],111 % of control
same,T/C,"dose: 50.0 mg/kg/injection, schedule: Q04DX003 (ip), vehicle: water",101 % of control
same,T/C,[18],114 % of control
same,T/C,"dose: 100.0 mg/kg/injection, schedule: Q04DX003 (ip), vehicle: water",94 % of control
same,T/C,[19],104 % of control
same,T/C,"dose: 200.0 mg/kg/injection, schedule: Q04DX003 (ip), vehicle: water",102 % of control
same,T/C,[20],114 % of control
same,T/C,"dose: 400.0 mg/kg/injection, schedule: Q04DX003 (ip), vehicle: water",100 % of control
Cc1c2c(ccc3ccccc32)c[n+]2ccccc12,T/C,"dose: 6.25 mg/kg/injection, schedule: Q01DX009 (ip), vehicle: saline",105 % of control
same,T/C,"dose: 12.5 mg/kg/injection, schedule: Q01DX009 (ip), vehicle: saline",122 % of control
same,T/C,"dose: 12.5 mg/kg/injection, schedule: Q04DX003 (ip), vehicle: saline",118 % of control
same,T/C,"dose: 25.0 mg/kg/injection, schedule: Q04DX003 (ip), vehicle: saline",122 % of control
O=[N+]([O-])c1ccc(Sc2ccc([N+](=O)[O-])cc2)cc1,T/C,[21],90 % of control
same,T/C,"dose: 50.0 mg/kg/injection, schedule: Q04DX003 (ip), vehicle: saline with Tween-80",100 % of control
same,T/C,[22],95 % of control
same,T/C,[23],90 % of control
same,T/C,"dose: 200.0 mg/kg/injection, schedule: Q04DX003 (ip), vehicle: saline with Tween-80",100 % of control
O=C1C(c2ccccc2)=C(c2ccccc2)C(c2ccccc2)=C1c1ccccc1,T/C,"dose: 0.78 mg/kg/injection, schedule: Q04DX003 (ip), vehicle: water",88 % of control
same,T/C,"dose: 1.56 mg/kg/injection, schedule: Q01DX009 (ip), vehicle: water",103 % of control
same,T/C,"dose: 1.56 mg/kg/injection, schedule: Q04DX003 (ip), vehicle: water",95 % of control
same,T/C,"dose: 3.12 mg/kg/injection, schedule: Q01DX009 (ip), vehicle: water",94 % of control
same,T/C,"dose: 3.12 mg/kg/injection, schedule: Q04DX003 (ip), vehicle: water",88 % of control
same,T/C,"dose: 6.25 mg/kg/injection, schedule: Q01DX009 (ip), vehicle: water",97 % of control
same,T/C,"dose: 6.25 mg/kg/injection, schedule: Q04DX003 (ip), vehicle: water",106 % of control
same,T/C,"dose: 12.5 mg/kg/injection, schedule: Q01DX009 (ip), vehicle: water",94 % of control
same,T/C,"dose: 12.5 mg/kg/injection, schedule: Q04DX003 (ip), vehicle: water",100 % of control
same,T/C,"dose: 25.0 mg/kg/injection, schedule: Q01DX009 (ip), vehicle: water",97 % of control
same,T/C,[17],97 % of control
same,T/C,[18],101 % of control
same,T/C,[19],91 % of control
same,T/C,[20],87 % of control
O=C(Cn1ccc(O)cc1=O)N1CCOCC1,T/C,[18],105 % of control
same,T/C,[19],104 % of control
same,T/C,[20],104 % of control
O=c1cc2cccccc-2cc1O,T/C,"dose: 10.0 mg/kg/injection, schedule: Q01DX009 (ip), vehicle: saline with Tween-80",104 % of control
same,T/C,"dose: 20.0 mg/kg/injection, schedule: Q01DX009 (ip), vehicle: saline with Tween-80",113 % of control
same,T/C,"dose: 40.0 mg/kg/injection, schedule: Q01DX009 (ip), vehicle: saline with Tween-80",113 % of control
CC(=O)Oc1cccc2c1C(=O)c1c(OC(C)=O)cccc1C2=O,T/C,"dose: 3.13 mg/kg/injection, schedule: Q04DX003 (ip), vehicle: Klucel (hydroxypropylcellulose) (HPC)",101 % of control
same,T/C,[10],99 % of control
same,T/C,[11],117 % of control
same,T/C,[13],108 % of control
CC(CCCC1SCC2NC(=O)NC21)C(=O)O (stereo unspecified),T/C,[14],102 % of control
same,T/C,[2],91 % of control
same,T/C,[4],98 % of control
Oc1c(CN2CCOCC2)cc(CN2CCOCC2)cc1CN1CCOCC1,T/C,[22],91 % of control
same,T/C,[23],86 % of control
same,T/C,[6],100 % of control
O=C(O)/C=C/C(=O)Nc1cccc(Oc2ccc([N+](=O)[O-])cc2[N+](=O)[O-])c1,T/C,[24],118 % of control
same,T/C,[7],100 % of control
same,T/C,[25],122 % of control
same,T/C,[8],100 % of control
same,T/C,[9],91 % of control
S=C(NCCCN1CCOCC1)NN=C1c2ccccc2-c2ccccc21,T/C,[21],97 % of control
same,T/C,[22],91 % of control
same,T/C,[23],97 % of control
Nc1nc(N)c(N=O)c(N)n1,T/C,[24],150 % of control
same,T/C,[25],111 % of control
same,T/C,"dose: 400.0 mg/kg/injection, schedule: Q01DX009 (ip), vehicle: saline",106 % of control
COc1ccc(C(C#N)CC(=O)c2ccc(OCc3ccccc3)c(OC)c2)cc1OC (stereo unspecified),T/C,"dose: 50.0 mg/kg/injection, schedule: Q04DX003 (ip), vehicle: other",96 % of control
same,T/C,[7],88 % of control
same,T/C,[8],87 % of control
same,T/C,[9],90 % of control
Cc1ccc(N2CCN(CCCN3CCN(c4ccc(Cl)cc4)CC3)CC2)cc1,T/C,"dose: 50.0 mg/kg/injection, schedule: Q04DX003 (ip), vehicle: saline sonified",100 % of control
same,T/C,[15],95 % of control
same,T/C,[16],95 % of control
CC1(O)CCC2C3CCC4=CC(=O)CCC4C3CCC21C (stereo unspecified),T/C,[12],113 % of control
same,T/C,"dose: 65.0 mg/kg/injection, schedule: Q01DX009 (ip), vehicle: Klucel (hydroxypropylcellulose) (HPC)",94 % of control
same,T/C,"dose: 66.0 mg/kg/injection, schedule: Q01DX009 (ip), vehicle: Klucel (hydroxypropylcellulose) (HPC)",95 % of control and 100 % of control
same,T/C,[7],100 % of control
same,T/C,[2],100 % of control and 118 % of control
same,T/C,[8],115 % of control
